Experimental data from ChEMBL document CHEMBL5370593, “Discovery and In Vitro Characterization of SPL028: Deuterated N,N-Dimethyltryptamine” (ACS Med Chem Lett, 2023).
Active and inactive are the calls of the source. The rule behind the calls is not given here.

Columns and labels:
Type in all cases: cell-based
[1] = target: 5-hydroxytryptamine receptor 7 (Homo sapiens, UniProt P34969); test: Displacement of [3H] LSD from human recombinant 5-HT7 receptor expressed in CHO-K1 cells at 10 uM incubated for 120 mins by spectrophotometric analysis relative to control
[2] = target: 5-hydroxytryptamine receptor 2B (Homo sapiens) (UniProt P41595); test: Displacement of [3H] LSD from human recombinant 5-HT2B receptor expressed in CHO-K1 cells at 10 uM incubated for 60 mins by spectrophotometric analysis relative to control
[3] = target: Alpha-2C adrenergic receptor (Homo sapiens) (UniProt P18825); test: Displacement of [3H]-rauwolscine from human recombinant adrenergic alpha-2c receptor expressed in CHO-K1 cells at 10 uM incubated for 60 mins by […] relative to control
[4] = target: Alpha-1D adrenergic receptor (Homo sapiens) (UniProt P25100); test: Displacement of [3H] prazosin from human recombinant adrenergic alpha-1d receptor expressed in HEK293 cells at 10 uM incubated for 60 mins by spectrophotometric analysis relative to control
[5] = target: Neuronal acetylcholine receptor; alpha3/beta4 (Homo sapiens, UniProt P30926+P32297); test: Displacement of [125I]-epibatidine from human recombinant nAChR alpha3beta4 receptor expressed in CHO-K1 cells at 10 uM incubated for 60 mins by spectrophotometric analysis relative to control
[6] = target: 5-hydroxytryptamine receptor 1A (Homo sapiens) (UniProt P08908); test: Displacement of [3H] 8-OH-DPAT from human recombinant 5-HT1A receptor expressed in CHO-K1 cells at 10 uM incubated for 60 mins by spectrophotometric analysis relative to control
[7] = target: 5-hydroxytryptamine receptor 6 (Homo sapiens, UniProt P50406); test: Displacement of [3H] LSD from human recombinant 5-HT6 receptor expressed in human HeLa cells at 10 uM incubated for 120 mins by spectrophotometric analysis relative to control
[8] = target: Alpha-1A adrenergic receptor (Homo sapiens) (UniProt P35348); test: Displacement of [3H] prazosin from human recombinant adrenergic alpha-1a receptor expressed in […] cells at 10 uM incubated for 60 mins by spectrophotometric analysis relative to control
[9] = target: 5-hydroxytryptamine receptor 1B (Homo sapiens, UniProt P28222); test: Displacement of [3H] GR125743 from human recombinant 5-HT1B receptor expressed in […] cells at 10 uM incubated for 90 mins by spectrophotometric analysis relative to control
[10] = target: 5-hydroxytryptamine receptor 5A (Homo sapiens, UniProt P47898); test: Displacement of [3H] LSD from human recombinant 5-HT5A receptor expressed in CHO-K1 cells at 10 uM incubated for 60 mins by spectrophotometric analysis relative to control
[11] = target: Sigma non-opioid intracellular receptor 1 (Homo sapiens) (UniProt Q99720); test: Displacement of [3H] pentazocine from human sigma 1 receptor expressed in human Jurkat cells at 10 uM incubated for 120 mins by spectrophotometric analysis relative to control; conditions: tested as the 2H-labelled form
[12] = target: Sigma non-opioid intracellular receptor 1 (Homo sapiens) (UniProt Q99720); test: Displacement of [3H] pentazocine from human sigma 1 receptor expressed in human Jurkat cells at <=10 uM incubated for 120 mins by spectrophotometric analysis

Sigma non-opioid intracellular receptor 1 (Homo sapiens), sequence (Q99720 whole entry): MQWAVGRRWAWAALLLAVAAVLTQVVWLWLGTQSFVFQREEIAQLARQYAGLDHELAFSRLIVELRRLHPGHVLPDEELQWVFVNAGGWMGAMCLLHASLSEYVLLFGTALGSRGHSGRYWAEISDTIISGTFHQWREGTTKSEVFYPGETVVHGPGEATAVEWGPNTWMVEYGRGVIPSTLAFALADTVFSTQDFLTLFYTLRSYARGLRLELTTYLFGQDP
5-hydroxytryptamine receptor 2B (Homo sapiens), sequence (P41595 whole entry): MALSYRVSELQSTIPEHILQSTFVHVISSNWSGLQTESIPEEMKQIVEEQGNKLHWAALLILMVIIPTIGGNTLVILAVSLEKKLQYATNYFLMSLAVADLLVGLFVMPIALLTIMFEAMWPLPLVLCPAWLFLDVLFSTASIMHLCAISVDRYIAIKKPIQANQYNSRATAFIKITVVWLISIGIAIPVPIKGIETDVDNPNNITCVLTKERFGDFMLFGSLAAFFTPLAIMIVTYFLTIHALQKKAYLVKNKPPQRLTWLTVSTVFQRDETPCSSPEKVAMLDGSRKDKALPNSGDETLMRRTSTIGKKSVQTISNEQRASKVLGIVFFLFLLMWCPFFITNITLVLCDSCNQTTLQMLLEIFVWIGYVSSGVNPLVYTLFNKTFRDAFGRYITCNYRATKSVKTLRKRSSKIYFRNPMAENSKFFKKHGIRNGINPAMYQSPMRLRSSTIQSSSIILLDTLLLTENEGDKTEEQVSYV
Alpha-2C adrenergic receptor (Homo sapiens), sequence (P18825 whole entry): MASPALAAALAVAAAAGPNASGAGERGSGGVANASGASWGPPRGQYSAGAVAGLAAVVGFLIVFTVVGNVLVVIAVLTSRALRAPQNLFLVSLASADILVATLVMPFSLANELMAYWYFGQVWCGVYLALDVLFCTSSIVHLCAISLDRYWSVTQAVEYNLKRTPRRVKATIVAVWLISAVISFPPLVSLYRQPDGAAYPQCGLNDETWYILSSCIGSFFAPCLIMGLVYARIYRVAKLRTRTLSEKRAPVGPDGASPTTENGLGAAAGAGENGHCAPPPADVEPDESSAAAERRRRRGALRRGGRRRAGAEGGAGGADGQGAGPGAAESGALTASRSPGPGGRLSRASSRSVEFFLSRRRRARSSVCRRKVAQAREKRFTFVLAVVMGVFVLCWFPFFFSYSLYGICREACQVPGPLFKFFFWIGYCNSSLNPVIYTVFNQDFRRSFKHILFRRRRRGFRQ
Alpha-1A adrenergic receptor (Homo sapiens), sequence (P35348 whole entry): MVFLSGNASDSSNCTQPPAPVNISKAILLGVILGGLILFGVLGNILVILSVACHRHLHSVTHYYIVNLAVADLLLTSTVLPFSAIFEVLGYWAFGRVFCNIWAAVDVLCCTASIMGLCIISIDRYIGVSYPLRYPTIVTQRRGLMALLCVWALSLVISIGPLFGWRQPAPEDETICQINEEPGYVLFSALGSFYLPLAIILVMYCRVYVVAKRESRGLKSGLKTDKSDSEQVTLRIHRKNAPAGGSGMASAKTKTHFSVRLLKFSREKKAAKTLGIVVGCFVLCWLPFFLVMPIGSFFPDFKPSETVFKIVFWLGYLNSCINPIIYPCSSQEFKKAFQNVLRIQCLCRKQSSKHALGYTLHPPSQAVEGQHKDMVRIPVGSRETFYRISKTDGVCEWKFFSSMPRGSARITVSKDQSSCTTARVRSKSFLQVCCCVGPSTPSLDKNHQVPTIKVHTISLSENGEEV
5-hydroxytryptamine receptor 1B, sequence (P28222 whole entry): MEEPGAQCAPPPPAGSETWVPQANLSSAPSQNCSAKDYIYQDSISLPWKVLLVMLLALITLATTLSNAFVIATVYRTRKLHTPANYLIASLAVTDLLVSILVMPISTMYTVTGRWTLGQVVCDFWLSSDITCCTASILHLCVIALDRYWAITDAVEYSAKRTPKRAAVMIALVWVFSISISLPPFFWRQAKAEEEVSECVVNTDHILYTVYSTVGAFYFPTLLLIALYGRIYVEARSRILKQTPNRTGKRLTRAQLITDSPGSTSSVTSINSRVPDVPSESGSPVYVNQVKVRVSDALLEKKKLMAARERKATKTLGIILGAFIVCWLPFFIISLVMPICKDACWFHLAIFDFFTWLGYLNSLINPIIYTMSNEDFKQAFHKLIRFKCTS
5-hydroxytryptamine receptor 1A (Homo sapiens), sequence (P08908 whole entry): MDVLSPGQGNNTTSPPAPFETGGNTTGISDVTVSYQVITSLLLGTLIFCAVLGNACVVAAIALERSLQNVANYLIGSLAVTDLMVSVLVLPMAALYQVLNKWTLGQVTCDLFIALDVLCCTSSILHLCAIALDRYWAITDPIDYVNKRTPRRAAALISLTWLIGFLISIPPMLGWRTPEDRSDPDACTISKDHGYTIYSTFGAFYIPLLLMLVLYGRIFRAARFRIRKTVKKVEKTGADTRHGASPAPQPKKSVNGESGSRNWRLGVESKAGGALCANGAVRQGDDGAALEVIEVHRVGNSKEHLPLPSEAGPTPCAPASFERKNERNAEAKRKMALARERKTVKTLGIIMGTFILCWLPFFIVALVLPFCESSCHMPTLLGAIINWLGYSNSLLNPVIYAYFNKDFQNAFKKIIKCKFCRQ
5-hydroxytryptamine receptor 6, sequence (P50406 whole entry): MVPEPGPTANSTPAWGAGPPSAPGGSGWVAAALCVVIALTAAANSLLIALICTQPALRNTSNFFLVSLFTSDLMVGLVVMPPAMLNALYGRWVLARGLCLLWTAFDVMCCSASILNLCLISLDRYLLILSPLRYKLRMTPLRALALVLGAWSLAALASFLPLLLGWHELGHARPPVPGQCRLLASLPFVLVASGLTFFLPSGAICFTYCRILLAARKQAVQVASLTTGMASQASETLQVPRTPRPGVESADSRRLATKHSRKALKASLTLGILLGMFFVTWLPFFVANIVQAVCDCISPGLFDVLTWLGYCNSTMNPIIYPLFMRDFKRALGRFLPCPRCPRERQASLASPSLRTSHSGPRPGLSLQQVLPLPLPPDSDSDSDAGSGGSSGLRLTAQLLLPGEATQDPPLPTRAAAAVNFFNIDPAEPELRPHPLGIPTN
5-hydroxytryptamine receptor 5A, sequence (P47898 whole entry): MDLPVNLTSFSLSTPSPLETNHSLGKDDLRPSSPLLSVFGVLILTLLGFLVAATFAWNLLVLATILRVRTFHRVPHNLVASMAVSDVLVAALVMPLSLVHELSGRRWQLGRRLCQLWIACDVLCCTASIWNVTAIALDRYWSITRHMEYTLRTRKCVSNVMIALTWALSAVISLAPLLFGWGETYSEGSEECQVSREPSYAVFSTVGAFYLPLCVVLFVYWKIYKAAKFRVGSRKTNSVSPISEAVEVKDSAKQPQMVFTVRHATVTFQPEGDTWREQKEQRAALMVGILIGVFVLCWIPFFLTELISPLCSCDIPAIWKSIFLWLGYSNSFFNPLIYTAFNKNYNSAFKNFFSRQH
Alpha-1D adrenergic receptor (Homo sapiens), sequence (P25100 whole entry): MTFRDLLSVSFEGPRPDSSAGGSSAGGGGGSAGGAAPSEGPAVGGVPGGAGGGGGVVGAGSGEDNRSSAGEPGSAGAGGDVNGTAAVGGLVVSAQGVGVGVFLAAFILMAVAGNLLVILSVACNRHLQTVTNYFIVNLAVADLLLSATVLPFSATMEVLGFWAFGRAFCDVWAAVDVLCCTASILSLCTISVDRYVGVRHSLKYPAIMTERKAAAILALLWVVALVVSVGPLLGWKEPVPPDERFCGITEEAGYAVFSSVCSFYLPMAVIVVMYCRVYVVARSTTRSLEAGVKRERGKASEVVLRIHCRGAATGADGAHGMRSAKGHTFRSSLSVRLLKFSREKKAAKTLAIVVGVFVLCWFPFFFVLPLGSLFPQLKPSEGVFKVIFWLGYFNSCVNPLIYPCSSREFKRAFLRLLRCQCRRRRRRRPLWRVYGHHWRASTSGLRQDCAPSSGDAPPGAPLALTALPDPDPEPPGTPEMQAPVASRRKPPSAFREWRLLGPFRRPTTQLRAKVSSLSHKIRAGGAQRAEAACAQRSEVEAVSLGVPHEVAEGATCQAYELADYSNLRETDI
5-hydroxytryptamine receptor 7, sequence (P34969 whole entry): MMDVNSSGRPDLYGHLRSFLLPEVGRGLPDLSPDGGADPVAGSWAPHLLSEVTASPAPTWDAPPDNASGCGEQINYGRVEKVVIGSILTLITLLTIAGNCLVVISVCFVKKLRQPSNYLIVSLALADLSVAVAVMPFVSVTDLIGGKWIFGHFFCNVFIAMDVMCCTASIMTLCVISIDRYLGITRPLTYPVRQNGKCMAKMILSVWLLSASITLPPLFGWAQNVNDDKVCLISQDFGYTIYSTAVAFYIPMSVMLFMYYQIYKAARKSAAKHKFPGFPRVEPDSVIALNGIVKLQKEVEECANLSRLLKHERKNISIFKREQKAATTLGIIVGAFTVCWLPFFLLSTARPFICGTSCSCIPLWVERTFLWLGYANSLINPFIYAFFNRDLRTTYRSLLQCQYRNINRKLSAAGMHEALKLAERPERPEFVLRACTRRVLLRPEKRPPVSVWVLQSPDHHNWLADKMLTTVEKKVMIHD

Compound: CN(C)CCc1c[nH]c2ccccc12.O=C(O)/C=C/C(=O)O
- inhibition [1]: 90.4%
- inhibition ([1]; tested as the 2H-labelled form): 95.5%
- inhibition [2]: 95.5%
- inhibition ([2]; tested as the 2H-labelled form): 96.5%
- inhibition [3]: 58.4%
- inhibition ([3]; tested as the 2H-labelled form): 57.6%
- inhibition [4]: 54.1%
- inhibition ([4]; tested as the 2H-labelled form): 63.2%
- inhibition [5]: 64.6%
- inhibition ([5]; tested as the 2H-labelled form): 63.5%
- inhibition [6]: 96%
- inhibition ([6]; tested as the 2H-labelled form): 97.6%
- inhibition [7]: 86.1%
- inhibition ([7]; tested as the 2H-labelled form): 86.2%
- inhibition [8]: 85.1%
- inhibition ([8]; tested as the 2H-labelled form): 85.1%
- inhibition [9]: 73.1%
- inhibition ([9]; tested as the 2H-labelled form): 75.5%
- inhibition [10]: 72.7%
- inhibition ([10]; tested as the 2H-labelled form): 70.2%
- inhibition [11]: 45%
- inhibition [12]: inactive
- inhibition ([12]; tested as the 2H-labelled form): inactive
